Test results as given in ChEMBL document CHEMBL5665443, “Enzyme Inhibitor Single Concentration assay results for EUbOPEN Chemogenomics Library” (2024).

Assays:
[1] = molecular target: N-glycosylase/DNA lyase (Homo sapiens) (UniProt O15527); conditions: Compound Concentration 10.0 uM;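 also: OGG1 cleavage of a quenched duplex DNA oligonucleotide, coupled to APE1 for strand incision, read as fluorescence at 594 nm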
Description: Inhibition of OGG1 by quantifying inhibition of OGG1-mediated cleavage and dissociation of quenched duplex DNA oligonucleotides, measured as fluorescence at 594 nm. To generate a functional strand incision and increase turn-over this assay is coupled to APE1.

[2] = molecular target: Methyl-CpG-binding domain protein 4 (Homo sapiens) (UniProt O95243); conditions: Compound Concentration 10.0 uM, Hit No;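 also: MBD4 activity read as fluorescence at 594 nm from cleavage and release of a quenched duplex DNA oligonucleotide, with APE1 coupled to incise the strand and raise turnover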
Chain of Methyl-CpG-binding domain protein 4 (Homo sapiens) (O95243 whole entry, the tested form may be a part): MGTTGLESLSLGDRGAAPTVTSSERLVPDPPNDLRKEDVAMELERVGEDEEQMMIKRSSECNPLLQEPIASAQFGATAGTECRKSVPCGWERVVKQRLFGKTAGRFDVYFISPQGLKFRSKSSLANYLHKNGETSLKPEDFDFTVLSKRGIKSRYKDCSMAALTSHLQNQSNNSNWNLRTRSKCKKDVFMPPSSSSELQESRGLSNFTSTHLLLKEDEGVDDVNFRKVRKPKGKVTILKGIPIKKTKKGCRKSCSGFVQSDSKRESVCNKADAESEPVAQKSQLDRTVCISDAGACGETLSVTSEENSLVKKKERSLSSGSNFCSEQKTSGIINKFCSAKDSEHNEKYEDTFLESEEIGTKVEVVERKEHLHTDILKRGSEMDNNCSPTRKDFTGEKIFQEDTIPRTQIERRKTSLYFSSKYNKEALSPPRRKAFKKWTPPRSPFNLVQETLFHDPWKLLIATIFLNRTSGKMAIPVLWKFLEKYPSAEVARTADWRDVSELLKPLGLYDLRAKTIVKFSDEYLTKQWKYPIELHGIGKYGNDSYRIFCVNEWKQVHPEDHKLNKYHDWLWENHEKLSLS
Description: Inhibition of MBD4 by quantifying inhibition of MBD4-mediated cleavage and dissociation of quenched duplex DNA oligonucleotides, measured as fluorescence at 594 nm. To generate a functional strand incision and increase turn-over this assay is coupled to APE1.

[3] = molecular target: T1, Adenine DNA glycosylase (Homo sapiens) (UniProt Q9UIF7); conditions: Compound Concentration 10.0 uM, Hit No;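 also: human MUTYH activity read as 594 nm fluorescence from cleavage and release of a quenched DNA duplex, coupled with APE1 for strand incision, lower signal meaning inhibition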
T1 sequence (whole entry): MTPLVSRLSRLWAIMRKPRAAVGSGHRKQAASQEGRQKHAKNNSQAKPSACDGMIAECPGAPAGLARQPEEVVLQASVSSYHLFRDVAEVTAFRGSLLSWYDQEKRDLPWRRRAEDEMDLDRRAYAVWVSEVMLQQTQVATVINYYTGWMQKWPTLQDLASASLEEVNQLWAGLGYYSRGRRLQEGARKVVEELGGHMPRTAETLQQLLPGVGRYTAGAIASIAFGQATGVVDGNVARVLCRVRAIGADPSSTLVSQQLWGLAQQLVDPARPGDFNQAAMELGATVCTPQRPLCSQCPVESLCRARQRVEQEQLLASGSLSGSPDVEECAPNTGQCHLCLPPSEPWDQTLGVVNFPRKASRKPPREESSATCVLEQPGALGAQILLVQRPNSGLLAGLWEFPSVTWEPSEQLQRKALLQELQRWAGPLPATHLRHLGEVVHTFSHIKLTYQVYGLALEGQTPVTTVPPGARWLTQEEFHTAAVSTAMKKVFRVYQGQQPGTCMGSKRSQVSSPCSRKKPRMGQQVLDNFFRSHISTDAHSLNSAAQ
Description: Inhibition of MUTYH by quantifying inhibition of MUTYH-mediated cleavage and dissociation of quenched duplex DNA oligonucleotides, measured as fluorescence at 594 nm. To generate a functional strand incision and increase turn-over this assay is coupled to APE1.

[4] = molecular target: T2, Endonuclease 8-like 2 (Homo sapiens) (UniProt Q969S2); conditions: Compound Concentration 10.0 uM, Hit No;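 also: fluorescence at 594 nm reports NEIL2 cutting and release of a quenched double-stranded DNA oligo substrate, reduced signal read as inhibition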
T2 sequence (whole entry): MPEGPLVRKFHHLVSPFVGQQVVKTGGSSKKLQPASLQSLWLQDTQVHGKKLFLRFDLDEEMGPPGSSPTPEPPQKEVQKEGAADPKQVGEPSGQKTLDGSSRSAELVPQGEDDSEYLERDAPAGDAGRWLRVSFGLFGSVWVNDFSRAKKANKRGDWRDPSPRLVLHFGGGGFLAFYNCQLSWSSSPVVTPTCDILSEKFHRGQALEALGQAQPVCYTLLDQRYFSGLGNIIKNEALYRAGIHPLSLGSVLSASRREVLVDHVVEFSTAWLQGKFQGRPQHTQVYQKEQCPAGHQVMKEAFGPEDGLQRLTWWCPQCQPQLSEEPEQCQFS
Description: Inhibition of NEIL2 by quantifying inhibition of NEIL2-mediated cleavage and dissociation of quenched duplex DNA oligonucleotides, measured as fluorescence at 594 nm.

[5] = molecular target: Endonuclease 8-like 1 (Homo sapiens) (UniProt Q96FI4); conditions: Compound Concentration 10.0 uM, Hit No;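 also: fluorescence at 594 nm from quenched duplex DNA oligonucleotides released by NEIL1 cleavage and strand separation, reported as reduction of this enzyme activity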
Chain of Endonuclease 8-like 1 (Homo sapiens) (Q96FI4 whole entry): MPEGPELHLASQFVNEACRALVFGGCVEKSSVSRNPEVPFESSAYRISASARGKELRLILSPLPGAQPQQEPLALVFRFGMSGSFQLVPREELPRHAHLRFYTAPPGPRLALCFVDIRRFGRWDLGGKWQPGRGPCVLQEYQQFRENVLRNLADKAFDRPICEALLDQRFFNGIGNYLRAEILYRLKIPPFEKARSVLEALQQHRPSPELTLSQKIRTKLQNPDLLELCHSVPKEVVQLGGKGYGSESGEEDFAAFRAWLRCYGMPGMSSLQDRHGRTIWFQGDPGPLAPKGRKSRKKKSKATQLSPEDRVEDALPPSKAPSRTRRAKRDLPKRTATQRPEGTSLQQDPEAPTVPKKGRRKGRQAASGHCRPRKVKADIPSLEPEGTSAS
Description: Inhibition of NEIL1 by quantifying inhibition of NEIL1-mediated cleavage and dissociation of quenched duplex DNA oligonucleotides, measured as fluorescence at 594 nm.

[6] = molecular target: G/T mismatch-specific thymine DNA glycosylase (Homo sapiens) (UniProt Q13569); conditions: Compound Concentration 10.0 uM, Hit No;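 also: human TDG cleavage of quenched duplex DNA oligonucleotides coupled to APE1, strand release read as fluorescence at 594 nm, inhibition of TDG activity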
Chain of G/T mismatch-specific thymine DNA glycosylase (Homo sapiens) (Q13569 whole entry): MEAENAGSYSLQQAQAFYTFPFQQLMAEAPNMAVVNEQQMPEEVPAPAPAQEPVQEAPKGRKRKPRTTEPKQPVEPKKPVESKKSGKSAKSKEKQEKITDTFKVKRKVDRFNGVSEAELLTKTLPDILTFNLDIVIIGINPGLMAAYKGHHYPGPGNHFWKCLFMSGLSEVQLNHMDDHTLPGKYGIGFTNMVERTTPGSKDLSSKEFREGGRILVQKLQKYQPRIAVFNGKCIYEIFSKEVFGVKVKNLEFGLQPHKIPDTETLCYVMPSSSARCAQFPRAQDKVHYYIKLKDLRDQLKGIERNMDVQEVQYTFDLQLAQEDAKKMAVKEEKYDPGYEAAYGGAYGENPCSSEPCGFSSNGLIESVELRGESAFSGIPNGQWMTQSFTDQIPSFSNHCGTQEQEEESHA
Description: Inhibition of TDG by quantifying inhibition of TDG-mediated cleavage and dissociation of quenched duplex DNA oligonucleotides, measured as fluorescence at 594 nm. To generate a functional strand incision and increase turn-over this assay is coupled to APE1.

[7] = molecular target: Uracil-DNA glycosylase (Homo sapiens) (UniProt P13051); conditions: Compound Concentration 10.0 uM, Hit No;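 also: UNG excision on a quenched double-stranded DNA oligo probe, with APE1 added for strand incision and turnover, read as fluorescence at 594 nm as strands separate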
Chain of Uracil-DNA glycosylase (Homo sapiens) (P13051 whole entry): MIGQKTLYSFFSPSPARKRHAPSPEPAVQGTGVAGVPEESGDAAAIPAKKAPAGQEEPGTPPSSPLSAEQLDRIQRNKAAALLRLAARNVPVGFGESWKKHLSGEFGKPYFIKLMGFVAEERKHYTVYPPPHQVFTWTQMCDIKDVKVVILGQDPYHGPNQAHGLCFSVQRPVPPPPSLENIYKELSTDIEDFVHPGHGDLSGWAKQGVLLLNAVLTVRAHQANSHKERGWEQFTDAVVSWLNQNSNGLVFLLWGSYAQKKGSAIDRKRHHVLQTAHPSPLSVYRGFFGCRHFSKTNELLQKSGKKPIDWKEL
Description: Inhibition of UNG by quantifying inhibition of UNG-mediated cleavage and dissociation of quenched duplex DNA oligonucleotides, measured as fluorescence at 594 nm. To generate a functional strand incision and increase turn-over this assay is coupled to APE1.

[8] = molecular target: DNA-3-methyladenine glycosylase (Homo sapiens) (UniProt P29372); conditions: Compound Concentration 10.0 uM, Hit No;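 also: enzyme assay where MPG cuts a quenched duplex DNA oligonucleotide probe, paired with APE1 for strand incision and turnover, read as fluorescence at 594 nm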
Chain of DNA-3-methyladenine glycosylase (Homo sapiens) (P29372 whole entry): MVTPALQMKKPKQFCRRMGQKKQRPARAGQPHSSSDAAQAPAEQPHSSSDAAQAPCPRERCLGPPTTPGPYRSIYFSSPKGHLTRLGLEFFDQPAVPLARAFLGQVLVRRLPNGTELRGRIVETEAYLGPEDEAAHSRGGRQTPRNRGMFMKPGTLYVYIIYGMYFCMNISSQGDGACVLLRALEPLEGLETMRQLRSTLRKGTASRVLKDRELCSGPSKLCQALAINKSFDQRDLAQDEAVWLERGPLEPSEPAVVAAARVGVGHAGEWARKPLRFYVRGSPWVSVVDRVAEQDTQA
Description: Inhibition of MPG by quantifying inhibition of MPG-mediated cleavage and dissociation of quenched duplex DNA oligonucleotides, measured as fluorescence at 594 nm. To generate a functional strand incision and increase turn-over this assay is coupled to APE1.

[9] = molecular target: T3, Single-strand selective monofunctional uracil DNA glycosylase (Homo sapiens) (UniProt Q53HV7); conditions: Compound Concentration 10.0 uM, Hit No;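 also: enzymatic SMUG1 assay coupled with APE1, reading fluorescence at 594 nm released when a quenched double-stranded DNA oligonucleotide substrate is cleaved and separated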
T3 sequence (whole entry): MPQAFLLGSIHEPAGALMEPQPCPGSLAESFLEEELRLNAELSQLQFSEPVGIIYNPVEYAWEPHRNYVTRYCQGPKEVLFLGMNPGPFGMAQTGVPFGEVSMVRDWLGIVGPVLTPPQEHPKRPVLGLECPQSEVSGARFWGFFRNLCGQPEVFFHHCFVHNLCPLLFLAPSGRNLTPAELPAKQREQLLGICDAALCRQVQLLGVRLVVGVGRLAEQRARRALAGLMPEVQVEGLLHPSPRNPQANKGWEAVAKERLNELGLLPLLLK
Description: Inhibition of SMUG1 by quantifying inhibition of SMUG1-mediated cleavage and dissociation of quenched duplex DNA oligonucleotides, measured as fluorescence at 594 nm. To generate a functional strand incision and increase turn-over this assay is coupled to APE1.

Chain of N-glycosylase/DNA lyase (Homo sapiens) (O15527 whole entry, the tested form may be a part): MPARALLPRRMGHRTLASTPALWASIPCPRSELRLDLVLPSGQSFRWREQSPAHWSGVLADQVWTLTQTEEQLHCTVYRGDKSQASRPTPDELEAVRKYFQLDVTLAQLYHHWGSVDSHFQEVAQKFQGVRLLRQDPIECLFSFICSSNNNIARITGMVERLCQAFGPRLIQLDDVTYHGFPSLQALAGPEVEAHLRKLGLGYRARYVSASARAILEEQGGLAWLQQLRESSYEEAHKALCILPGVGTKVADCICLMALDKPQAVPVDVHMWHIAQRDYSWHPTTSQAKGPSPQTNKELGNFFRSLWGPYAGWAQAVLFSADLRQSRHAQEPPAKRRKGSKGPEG

Row | inhibition ([1]; Hit No) [%] | inhibition [2] [%] | inhibition [3] [%] | inhibition [4] [%] | inhibition [5] [%] | inhibition [6] [%] | inhibition [7] [%] | inhibition [8] [%] | inhibition [9] [%] | inhibition ([1]; Hit Yes) [%] | SMILES
1 | 8.48 | 19.8 | 39.2 | 6.5 | 4.69 | 24.9 | – | -2.83 | – | – | CCC[C@H](Oc1cc(C)c(-n2cc(C(F)(F)F)cn2)c(C)c1)c1ccc(C(=O)NCCC(=O)O)cc1
2 | -6.9 | 1.02 | 14 | 9.75 | -2.58 | 7.61 | – | 3.77 | – | – | CCN(Cc1ccncc1)C(=O)C(CO)c1ccccc1 (configuration not stated)
3 | 30.3 | 46.8 | 28.8 | – | 9.88 | 37.5 | – | 10.2 | – | – | CNC[C@H](O)c1ccc(O)c(O)c1
4 | 24.2 | 41.7 | 43.4 | -3.73 | -0.204 | 36.1 | -6.25 | 24.6 | – | – | Cc1cc([C@@H](C)Nc2cccc(-c3cc(C)c(C(=O)N[C@@H](C)C(=O)O)c(C)c3)c2)ccc1Cl

Further lines, the molecule ahead of its results:

Row | SMILES | inhibition ([1]; Hit No) [%] | inhibition [2] [%] | inhibition [3] [%] | inhibition [4] [%] | inhibition [5] [%] | inhibition [6] [%] | inhibition [7] [%] | inhibition [8] [%] | inhibition [9] [%] | inhibition ([1]; Hit Yes) [%]
5 | C=CC(=O)Nc1ccc2[nH]c(=O)n(C3CCN(C(=O)c4ccc(-c5nc6cc[nH]c(=O)c6cc5-c5ccccc5)cc4)CC3)c2c1 | 78.5 | -5.4 | 1.89 | 19.4 | -0.919 | 58.7 | -1.3 | -2.18 | – | –
6 | O=C(Cc1ccccc1)Nc1nc2ccc(Cl)cc2c2nc(-c3ccco3)nn12 | -2.3 | -7.05 | 13.8 | -4.48 | -6.88 | 4.82 | – | 6.12 | – | –
7 | Cc1ccc(/C(=C\CN2CCCC2)c2ccccn2)cc1 | -5.51 | -4.67 | 2.96 | -2.48 | 5.28 | 1.66 | – | -1.09 | – | –
8 | COc1cc(/C=C/C(=O)NCCn2c(C)cc3ccccc32)cc(OC)c1OC | – | 11.5 | 6.04 | 4.49 | -9.62 | 15.6 | -0.0662 | 27.9 | -8.26 | –
9 | Cc1c(F)cccc1NC(=O)Nc1ccc(Cl)c(S(=O)(=O)[C@H]2CCCNC2)c1O | – | 0.266 | -4.97 | -7.22 | – | 3.94 | -9.51 | 11.6 | -3.57 | –
10 | Cc1ccc(-c2ccc(F)cc2COc2ccc(CCC(=O)O)cc2)cc1 | 31.9 | 34.9 | 37.1 | 4.26 | 4.39 | 27.6 | – | 13.7 | – | –
11 | CC(C)C[C@H](NC(=O)N1CCCCCC1)C(=O)N[C@H](Cc1cn(C)c2ccccc12)C(=O)N[C@H](Cc1ccccn1)C(=O)O | -9.37 | -1.3 | 9.62 | 6 | -0.0556 | 3.66 | -6.34 | -0.244 | – | –
12 | COc1cccc(-c2c(C)n(Cc3c(F)cccc3C(F)(F)F)c(=O)n(C[C@H](NCCCC(=O)O)c3ccccc3)c2=O)c1F | -3.13 | -5.02 | 1.3 | -9.22 | -2.87 | 27.2 | – | 1.07 | – | –
13 | CC#C[C@@H](CC(=O)O)c1ccc(OCc2cccc(-c3ccc(C(F)(F)F)cc3)c2)cc1 | – | 48.1 | 47.2 | 0.764 | 1.13 | 41.7 | -4.48 | 28.7 | – | 64.3
14 | O=C(O)COc1cccc(CN(Cc2ccc(-n3cccn3)cc2)S(=O)(=O)c2cccnc2)c1 | – | 13.1 | 5.01 | -7.47 | 0.389 | -2.75 | – | 2.46 | -3.28 | –
